From ChEMBL document CHEMBL5303710, “ECBD screening data for assay EOS300044” (2022)

Molecular target: Replicase polyprotein 1ab (Severe acute respiratory syndrome coronavirus 2) (UniProt P0DTD1)
Test: Inhibition of SARS-CoV-2 3CL-Pro proteolytic cleavage of a dual-labeled substrate by FRET at 1mM DTT.
Assay type: functional
Set-up: assay stage

Structure (SMILES) | IC50 relative [µM]
Sc1nnnn1-c1ccccc1 | > 20
Nc1ccc(O)c2ncccc12 | > 20
Cc1cc(C)cc(N2C(=O)CC(Sc3nc[nH]n3)C2=O)c1 (centres undefined) | > 20
Cc1c(-c2ccc(N3CCc4cccc(C(=O)Nc5nc6ccccc6s5)c4C3)nc2C(=O)O)cnn1CC12CC3CC(CC(C3)C1)C2 | > 20
S=C=NCc1ccccc1 | > 20
CCN(CC)C(=S)S | > 20
Oc1cc2c(cc1O)C(c1ccccc1)CNCC2 (centres undefined) | > 20
Cn1sc(=O)n(Cc2ccccc2)c1=O | < 0.02
CCN(CC)S(=O)(=O)c1cccc(-n2sc3ccccc3c2=O)c1 | < 0.02
COc1cc(N(C)C)cc(CN(C)CCc2ccc([N+](=O)[O-])cc2)c1O | > 20
O=C(NC(=S)N1CCCc2ccccc21)c1ccccc1 | > 20
Cc1c(OCC(F)(F)F)ccnc1C[S+]([O-])c1nc2ccccc2[nH]1 (centres undefined) | > 20
COc1ccc2[nH]c([S+]([O-])Cc3ncc(C)c(OC)c3C)nc2c1 (centres undefined) | > 20
COc1ccc2[nH]c(S)nc2c1 | > 20
O=C(CCl)c1ccccc1 | 0.246
Cc1ccc(S(=O)(=O)N[C@@H](Cc2ccccc2)C(=O)CCl)cc1 | 0.839
COc1ccnc(C[S+]([O-])c2nc3cc(OC(F)F)ccc3[nH]2)c1OC (centres undefined) | > 20
O=C(c1cccs1)c1no[n+]([O-])c1C(=O)c1cccs1 | > 20
Cc1ccc(C)c(-n2sc3cc(F)ccc3c2=O)c1 | < 0.02
O=c1cc(-c2ccccc2)oc2cc(O)c(O)c(O)c12 | > 20
O=C(O)[C@@H](S)[C@@H](S)C(=O)O | 0.0836
CCOC(=O)c1c(N)sc(-c2ccccc2)c1C | 3.61
c1ccc2sc(SSc3nc4ccccc4s3)nc2c1 | 0.537
O=C(Nc1ccccc1)Nc1ccc(-c2ccc(C(=O)[C@@H]3CCC[C@H]3C(=O)O)cc2)cc1 | > 20
Nc1nc(S)c2ncn(C3OC(CO)C(O)C3O)c2n1 (centres undefined) | 1.45
Sc1nnc(-c2ccccc2Cl)o1 | 7.71
Cc1ccc(-n2sc(=O)n(Cc3ccc(F)cc3)c2=O)cc1 | 0.148

Structure (SMILES) | IC50 relative [µM]
O=C(/C=C/c1ccc2ccccc2n1)c1ccncc1 | 0.191
COc1ccc2[nH]c3c(S)ncnc3c2c1 | > 20
O=C(c1ccc(Cl)cc1)c1cc([N+](=O)[O-])ccc1N1CCOCC1 | > 20
Oc1cc2c(cc1C(c1ccc(C(F)(F)F)cc1)N1CCOCC1)OCO2 (centres undefined) | > 20
CCOc1cc(C(Nc2cc(C)ccn2)c2ccc3cccnc3c2O)ccc1OC (centres undefined) | > 20
COc1ncc(-c2ccc3nccc(-c4ccnnc4)c3c2)cc1NS(=O)(=O)c1ccc(F)cc1F | > 20
CCN1CCN(C(c2ccc(C(F)(F)F)cc2)c2ccc3cccnc3c2O)CC1 (centres undefined) | 1.34
Cc1cc(-c2ccc(/C=C3/S/C(=N\c4ccc(Cl)c(C(=O)O)c4)NC3=O)o2)c([N+](=O)[O-])cc1C | > 20
O=c1c2ccccc2sn1-c1ccccc1 | < 0.02
O=C1C(Cl)=C(N2CCOCC2)C(=O)N1c1ccc(Cl)c(Cl)c1 | > 20
O=C(CC1Sc2ncnn2C1=O)Nc1ccc(Br)cc1 (centres undefined) | > 20
COC(=O)CC[C@H](NC(=O)[C@H](CC(=O)OC)NC(=O)OCc1ccccc1)C(=O)N[C@H](C(=O)N[C@@H](CC(=O)OC)C(=O)CF)C(C)C | < 0.02
O=[N+]([O-])c1ccc(Sc2cccc[n+]2[O-])c2nonc12 | 0.53
Cc1cc(-c2ccc(/N=N/c3ccc4c(S(=O)(=O)O)cc(S(=O)(=O)O)c(N)c4c3O)c(C)c2)ccc1/N=N/c1ccc2c(S(=O)(=O)O)cc(S(=O)(=O)O)c(N)c2c1O | 0.0219
CC1=CC(=O)c2ccccc2C1=O | > 20
O=C1C(Cl)=C(Cl)C(=O)C(Cl)=C1Cl | 0.183
CN(C)S(=O)(=O)c1cccc(-n2sc3ccccc3c2=O)c1 | < 0.02
CCCCn1c(NC(=O)c2cccs2)c(C#N)c2nc3ccccc3nc21 | > 20
CN1CCN(C(=O)c2ccc(-c3ccc4c(C=O)c(O)ccc4c3)s2)CC1 | 5.65
O=C(O)c1c(Cl)c(Cl)c(Cl)c(Cl)c1-c1c2cc(I)c(=O)c(I)c-2oc2c(I)c(O)c(I)cc12 | > 20
Cc1ccc(-n2sc3ccccc3c2=O)cc1 | < 0.02
NC(Cc1cc(O)c(O)cc1O)C(=O)O (racemic) | > 20
CC(C)(C)OC(=O)NCCc1nnc(S(=O)(=O)Cc2ccc(Cl)cc2Cl)o1 | 7.29
O=c1c(O)cccc2cc(O)c(O)c(O)c12 | > 20
S=C=Nc1cccc(NC(=S)NCCCCNC(=S)Nc2cccc(N=C=S)c2)c1 | > 20
CC(Cc1ccc(O)c(O)c1)C(C)Cc1ccc(O)c(O)c1 (centres undefined) | > 20
Sc1nnc(Nc2ccccc2)s1 | > 20
